Residues, ends and D or L forms follow the SMILES beside them.
Test system: N- and C-SH2 domains of p85
Experiment: BIAcore inhibition of binding of GST-SH2 domains to immobilized PDGF receptor phosphopeptide Y751
Set-up: species or system bovine
Conditions: range of phosphopeptide concentrations; 25° C.; FIG. 7
Protocol: FIG. 7. Evaluation of the relative affinities of phosphotyrosine 1313, 1349 and 1356 for the N- and C- SH2 domains of p85. Affinities were determined by biospecific interaction analysis with the BIAcore instrument (Jonsson, U., Fagerstam, L., Roos, H., Ronnberg, J., Sjolander, Stenber, E., Stahlberg, R. Urbaniczky, C., Ostlin, H., and Malmquist. 1991. Surface plasmon reasonance and microfluidics for real time biospecific interaction analysis. Biotechniques 11: 520-527; Jonsson, U. and M. Malmquist. 1992. Real time biospecific analysis. The integration of surface plasmon reasonance detection, general biospecific interface chemistry and microfluidics into one analytical system p. 291-336. In F. Turner (ed), Advances in Biosensors, vol. 2 JAI Press, London; Karlsson, R., Michaelsson, A., and L. Mattsson. 1991. Kinetic analysis of monoclonal antibody-antigen interactions with a new biosensor based analytical system. J. Immunol. Meth. 145: 229-246).
Relative affinities were determined by measuring the ability of the phosphopeptides to inhibit the interaction of the SH2 domains with an immobilized phosphopeptide (DMSKDESVDY*VPMLDMK) (SEQ. ID NO: 26) which includes Y751 in the human PDGF receptor. Panel A and B show the results of these measurements, expressed as % inhibition of binding to phosphopeptide Y751.
GST-SH2 domain fusion proteins. The N- and C-SH2 domains of the bovine PI 3-kinase p85 subunit (amino acids 314-431 and 612-722) were obtained by polymerase chain reaction and cloned into the pGEX-2 bacterial expression vector (Smith, D. B., and Johnson K. S., Gene 67: 31-40 (1988).
Glutathione-S-transferase (GST)-SH2 fusion proteins were purified from bacterial lysates by glutathione affinity chromatography (Panayotou, G., et al. EMBO J., 11: 4261-4272 (1992)). Amino acid analysis on an Applied Biosystems 420A analyzer was used to determine the concentration of the recombinant proteins.
Analysis of the interaction of Y1349 and Y1356 with the p85 N- and C- SH2 domains using the BIAcore. […]

SMILES: CSCC[C@H](NC(=O)[C@@H](NC(=O)[C@H](CCC(=O)O)NC(=O)[C@@H](N)Cc1ccc(OP(=O)(O)O)cc1)C(C)C)C(=O)N[C@@H](CC(C)C)C(=O)N[C@@H](CCCCN)C(=O)N[C@@H](CS)C(=O)N[C@@H](Cc1c[nH]c2ccccc12)C(=O)O [H-Tyr*-Glu-Val-Met-Leu-Lys-Cys-Trp-OH] (HELM PEPTIDE1{[N[C@@H](Cc1ccc(OP(=O)(O)O)cc1)C(=O)[*:2]].E.V.M.L.K.C.W}$$$$V2.0)
- Apparent relative affinity: inhibition of binding of p85 N- and C-SH2 domains to phosphopeptide Y751: highest apparent affinity

— US5912183A, “Peptide inhibitors of mitogenesis and motogenesis” (Pharmacia & Upjohn S.p.A., priority 1993, dated 1999)
